PMC12073449, “Development of a Mechanism of Action-Reflective Cell-Based Reporter Gene Assay for Measuring Bioactivities of Therapeutic Glucagon-like Peptide-2 Analogues” (Molecules, 2025)
Ends that are not written are not given here.

Tested on: HEK293-GLP-2R-Luc cells

“HGEGTFSSELATILDALAARDFINWLIATKITDKKKKKK-NH2 [glepaglutide]” was tested, and the “log2 (TD/Ctrl) CPEB2” value (Qvalue 1.61 × 10^−6) was 1.107, the “log2 (TD/Ctrl) GPAT3” value (Qvalue 1.61 × 10^−6) was 1.067 and the “log2 (TD/Ctrl) LBH” value (Qvalue 1.62 × 10^−11) was 1.387. The “log2 (TD/Ctrl) CSRNP1” value (Qvalue 1.62 × 10^−22) was 2.05, the “log2 (TD/Ctrl) USP36” value (Qvalue 1.63 × 10^−11) was 1.039 and the “log2 (TD/Ctrl) DNER” value (Qvalue 1.71 × 10^−14) was 3.018. The “log2 (TD/Ctrl) LOC102724428” value (Qvalue 1.72 × 10^−7) was 1.373, the “log2 (TD/Ctrl) RELB” value (Qvalue 1.72 × 10^−7) was 1.9665 and the “log2 (TD/Ctrl) BMF” value (Qvalue 1.77 × 10^−4) was −1.178. For the same substance, the “log2 (TD/Ctrl) PBX1” value (Qvalue 1.77 × 10^−11) was −1.095, the “log2 (TD/Ctrl) TNFAIP3” value (Qvalue 1.80 × 10^−7) was 1.227 and the “log2 (TD/Ctrl) SCN9A” value (Qvalue 1.83 × 10^−18) was −1.8. For the same substance, the “log2 (TD/Ctrl) INPP5D” value (Qvalue 1.84 × 10^−5) was −2.417, the “log2 (TD/Ctrl) ICAM5” value (Qvalue 1.87 × 10^−4) was 1.744 and the “log2 (TD/Ctrl) ZNF503” value (Qvalue 1.87 × 10^−11) was −1.2971. The “log2 (TD/Ctrl) MFSD2A” value (Qvalue 1.88 × 10^−5) was 1.193, the “log2 (TD/Ctrl) ADA” value (Qvalue 1.89 × 10^−4) was 1.023 and the “log2 (TD/Ctrl) SV2C” value (Qvalue 1.91 × 10^−39) was 6.845. The “log2 (TD/Ctrl) ELL2” value (Qvalue 1.93 × 10^−15) was 1.192, the “log2 (TD/Ctrl) CD44” value (Qvalue 1.93 × 10^−23) was 2.115 and the “log2 (TD/Ctrl) CYB5D2” value (Qvalue 1.97 × 10^−6) was −1.056. For the same substance, the “log2 (TD/Ctrl) DOK3” value (Qvalue 2.01 × 10^−5) was −1.636, the “log2 (TD/Ctrl) TFPI2” value (Qvalue 2.01 × 10^−13) was 2.377 and the “log2 (TD/Ctrl) TUBB2A” value (Qvalue 2.02 × 10^−19) was 1.401. The “log2 (TD/Ctrl) SERTAD1” value (Qvalue 2.03 × 10^−14) was 1.452, the “log2 (TD/Ctrl) TRIM47” value (Qvalue 2.06 × 10^−4) was 1.231 and the “log2 (TD/Ctrl) CD68” value (Qvalue 2.06 × 10^−17) was 2.012. The “log2 (TD/Ctrl) FRMPD4” value (Qvalue 2.07 × 10^−4) was −1.078, the “log2 (TD/Ctrl) ETV4” value (Qvalue 2.09 × 10^−50) was 3.646 and the “log2 (TD/Ctrl) TUBA4A” value (Qvalue 2.12 × 10^−4) was 1.633. The “log2 (TD/Ctrl) SLC6A17” value (Qvalue 2.12 × 10^−19) was 2.784, the “log2 (TD/Ctrl) NAV2” value (Qvalue 2.21 × 10^−5) was 1.102 and the “log2 (TD/Ctrl) SOX2” value (Qvalue 2.21 × 10^−5) was −1.189. The “log2 (TD/Ctrl) IL6R” value (Qvalue 2.27 × 10^−19) was 1.742, the “log2 (TD/Ctrl) GPRC5A” value (Qvalue 2.28 × 10^−8) was 1.328 and the “log2 (TD/Ctrl) SLC25A25” value (Qvalue 2.28 × 10^−9) was 1.117. The “log2 (TD/Ctrl) UPP1” value (Qvalue 2.29 × 10^−9) was 1.296, the “log2 (TD/Ctrl) OLIG2” value (Qvalue 2.31 × 10^−9) was 2.054 and the “log2 (TD/Ctrl) TNC” value (Qvalue 2.37 × 10^−34) was 1.657. For the same substance, the “log2 (TD/Ctrl) GPR50” value (Qvalue 2.38 × 10^−8) was 2.002, the “log2 (TD/Ctrl) CPA4” value (Qvalue 2.40 × 10^−4) was 5.506 and the “log2 (TD/Ctrl) FAM217B” value (Qvalue 2.42 × 10^−6) was −1.106. The “log2 (TD/Ctrl) CCDC9” value (Qvalue 2.50 × 10^−4) was 1.137, the “log2 (TD/Ctrl) PLK3” value (Qvalue 2.50 × 10^−4) was 1.391 and the “log2 (TD/Ctrl) TCIM” value (Qvalue 2.51 × 10^−19) was 7.037. For the same substance, the “log2 (TD/Ctrl) NRP1” value (Qvalue 2.55 × 10^−11) was −1.191, the “log2 (TD/Ctrl) EPHA2” value (Qvalue 2.56 × 10^−11) was 1.303 and the “log2 (TD/Ctrl) DUSP4” value (Qvalue 2.57 × 10^−12) was 1.926. The “log2 (TD/Ctrl) MAFF” value (Qvalue 2.58 × 10^−27) was 3.639, the “log2 (TD/Ctrl) AMOT” value (Qvalue 2.58 × 10^−33) was −1.62 and the “log2 (TD/Ctrl) TNFRSF12A” value (Qvalue 2.59 × 10^−23) was 2.183. The “log2 (TD/Ctrl) ZFP36” value (Qvalue 2.68 × 10^−12) was 1.676, the “log2 (TD/Ctrl) ARL14” value (Qvalue 2.71 × 10^−4) was 3.565 and the “log2 (TD/Ctrl) JUNB” value (Qvalue 2.71 × 10^−23) was 2.192. The “log2 (TD/Ctrl) C1GALT1C1” value (Qvalue 2.74 × 10^−4) was −1.022, the “log2 (TD/Ctrl) UBALD2” value (Qvalue 2.76 × 10^−6) was 1.053 and the “log2 (TD/Ctrl) ZNF33B” value (Qvalue 2.82 × 10^−4) was −1.021. For the same substance, the “log2 (TD/Ctrl) YPEL4” value (Qvalue 2.87 × 10^−4) was 2.621, the “log2 (TD/Ctrl) WNT5A” value (Qvalue 2.87 × 10^−7) was −1.332 and the “log2 (TD/Ctrl) FLNC” value (Qvalue 2.88 × 10^−7) was 1.243. The “log2 (TD/Ctrl) NFIL3” value (Qvalue 2.91 × 10^−8) was 1.177, the “log2 (TD/Ctrl) TXNIP” value (Qvalue 2.97 × 10^−31) was −1.9141 and the “log2 (TD/Ctrl) GLA” value (Qvalue 2.98 × 10^−32) was 1.68. The “log2 (TD/Ctrl) VAV1” value (Qvalue 3.01 × 10^−4) was 1.198, the “log2 (TD/Ctrl) RGS2” value (Qvalue 3.01 × 10^−9) was 1.337 and the “log2 (TD/Ctrl) NREP” value (Qvalue 3.01 × 10^−13) was −1.339. The “log2 (TD/Ctrl) B3GAT1” value (Qvalue 3.15 × 10^−7) was 1.485, the “log2 (TD/Ctrl) OLFM2” value (Qvalue 3.15 × 10^−7) was 1.732 and the “log2 (TD/Ctrl) IL15RA” value (Qvalue 3.17 × 10^−4) was 1.677. The “log2 (TD/Ctrl) TNFRSF9” value (Qvalue 3.27 × 10^−6) was 1.903, the “log2 (TD/Ctrl) RASD1” value (Qvalue 3.31 × 10^−6) was 2.273 and the “log2 (TD/Ctrl) TSC22D3” value (Qvalue 3.35 × 10^−6) was 1.67. For the same substance, the “log2 (TD/Ctrl) MSANTD3-TMEFF1” value (Qvalue 3.37 × 10^−6) was 1.009, the “log2 (TD/Ctrl) SKIDA1” value (Qvalue 3.39 × 10^−5) was −1.407 and the “log2 (TD/Ctrl) USH1C” value (Qvalue 3.44 × 10^−6) was 2.547. For the same substance, the “log2 (TD/Ctrl) TMEM231” value (Qvalue 3.45 × 10^−5) was 1.1218, the “log2 (TD/Ctrl) COL12A1” value (Qvalue 3.45 × 10^−9) was 1.157 and the “log2 (TD/Ctrl) BEGAIN” value (Qvalue 3.50 × 10^−4) was 1.974. The “log2 (TD/Ctrl) PHLDA2” value (Qvalue 3.51 × 10^−4) was 1.79, the “log2 (TD/Ctrl) PCDH7” value (Qvalue 3.52 × 10^−9) was −1.185 and the “log2 (TD/Ctrl) ULBP2” value (Qvalue 3.54 × 10^−4) was 1.312. For the same substance, the “log2 (TD/Ctrl) PHF21B” value (Qvalue 3.56 × 10^−4) was 1.711, the “log2 (TD/Ctrl) JUN” value (Qvalue 3.59 × 10^−15) was 1.216 and the “log2 (TD/Ctrl) PIM1” value (Qvalue 3.61 × 10^−6) was 1.177. The “log2 (TD/Ctrl) CSGALNACT1” value (Qvalue 3.63 × 10^−4) was 2.392, the “log2 (TD/Ctrl) MN1” value (Qvalue 3.74 × 10^−4) was 1.348 and the “log2 (TD/Ctrl) ATF3” value (Qvalue 3.77 × 10^−12) was 2.527. The “log2 (TD/Ctrl) CASP9” value (Qvalue 3.78 × 10^−13) was 1.439, the “log2 (TD/Ctrl) C11orf96” value (Qvalue 3.88 × 10^−22) was 4.461 and the “log2 (TD/Ctrl) FHL3” value (Qvalue 3.94 × 10^−5) was 1.045. The “log2 (TD/Ctrl) MRC2” value (Qvalue 4.00 × 10^−5) was 1.244 and the “log2 (TD/Ctrl) SH2D3C” value (Qvalue 4.00 × 10^−6) was 2.239.
